The values below come from ChEMBL document CHEMBL5584317, “Acroamine A, a 2-Amino Adenine Alkaloid from the Marine Soft Coral Acrozoanthus australiae and Its Semisynthetic Derivatives That Inhibit cAMP-Dependent Protein Kinase A Catalytic Subunit Alpha” (J Nat Prod, 2024).

As usually defined, the IC50 is the point on the concentration scale where inhibition reaches its midpoint.

In test [1] the target is T1, cAMP-dependent protein kinase catalytic subunit alpha (Homo sapiens, UniProt P17612). As to the kind of experiment: Potency index, ratio of IC50 for acroamine A to IC50 for test compound for inhibition PKAcalpha (unknown origin) using CREB KRREILSRRPSYR-biotinylated peptide as substrate incubated for 45 mins in presence of ATP by ELISA.
Test [2] is filed under the species Homo sapiens. The test can be described thus: Potency index, ratio of IC50 for acroamine A to IC50 for test compound for inhibition of DNAJB1-[…] gene fusion of J-PKAc alpha chimeric protein (unknown origin) using CREB KRREILSRRPSYR-biotinylated peptide as substrate incubated for 45 mins in presence of ATP by ELISA.
Test [3] deals with T1, cAMP-dependent protein kinase catalytic subunit alpha. As to the kind of experiment: Inhibition of PKAcalpha (unknown origin) using CREB KRREILSRRPSYR-biotinylated peptide as substrate incubated for 45 mins in presence of ATP by ELISA. On the technique in general: ELISA stands for enzyme-linked immunosorbent assay.
Test [4] in a line: Inhibition of DNAJB1-[…] gene fusion of J-PKAc alpha chimeric protein (unknown origin) using CREB KRREILSRRPSYR-biotinylated peptide as substrate incubated for 45 mins in presence of ATP by ELISA. The arrangement: species or system Homo sapiens.
For test [5], the species on record is Homo sapiens. The test can be described thus: Inhibition of DNAJB1-[…] gene fusion of J-PKAc alpha chimeric protein (unknown origin) at 2 uM using CREB KRREILSRRPSYR-biotinylated peptide as substrate incubated for 45 mins in presence of 25 to 250 uM ATP by ELISA.
The species entered for test [6] is Homo sapiens. The test can be described thus: Inhibition of DNAJB1-[…] gene fusion of J-PKAc alpha chimeric protein (unknown origin) at 10 uM using CREB KRREILSRRPSYR-biotinylated peptide as substrate incubated for 45 mins in presence of 25 to 250 uM ATP by ELISA.
The target of test [7] is T1, cAMP-dependent protein kinase catalytic subunit alpha. The test can be described thus: Inhibition of PKAcalpha (unknown origin) up to 200 uM using CREB KRREILSRRPSYR-biotinylated peptide as substrate incubated for 45 mins in presence of ATP by ELISA.
The species entered for test [8] is Homo sapiens. The test can be described thus: Inhibition of DNAJB1-[…] gene fusion of J-PKAc alpha chimeric protein (unknown origin) up to 200 uM using CREB KRREILSRRPSYR-biotinylated peptide as substrate incubated for 45 mins in presence of ATP by ELISA.

The source made the active and inactive calls. No cut-off for these calls is given here.

With `Nc1nc(NCCc2nc(Br)[nH]c2Br)c2nc(Br)[nH]c2n1`, the Ratio IC50 (in test [1]; in the test filed under Homo sapiens [2]) was 19 each time. Besides, the IC50 in test [3] is 2.4 µM; in test [4] it was 2.5 µM. In addition, in the test listed under Homo sapiens [5], the inhibition result was “inactive”.
Consider `Nc1nc(NCCc2nc[nH]c2Br)c2nc[nH]c2n1`, for which the results for the IC50 in test [3] and in test [4] were 11.6 µM and 11.5 µM, respectively. Moreover, in the test filed under Homo sapiens [6], the inhibition entry is “inactive”.
As for `C/N=c1\nc(N(C)CCc2cn(C)c[n+]2C)c2c(ncn2C)n1C`, the inhibition entry (in test [7]; in the test filed under Homo sapiens [8]) was “inactive” each time.
Turning to `Nc1nc(NCCc2nc(Br)[nH]c2Br)c2nc[nH]c2n1`, the IC50 in test [3] stood at 5.7 µM; in test [4], 8.9 µM. Further, the inhibition result in the test filed under Homo sapiens [6] is “inactive”.
For the molecule `C/N=c1\nc(NCCc2cn(C)c[n+]2C)c2c(ncn2C)n1C`, the inhibition result (in test [7]; in the test listed under Homo sapiens [8]) was “inactive” throughout.
Regarding `Cn1cc(CCNc2nc(=N)n(C)c3ncn(C)c23)[n+](C)c1`, the inhibition result (in test [7]; in the test filed under Homo sapiens [8]) was “inactive” in each case.
Take `CN(C)c1nc(NCCc2cn(C)c[n+]2C)c2c(n1)[n+](C)cn2C`: the inhibition result (in test [7]; in the test listed under Homo sapiens [8]) was “inactive” throughout.
Regarding `Nc1nc(NCCc2c[nH]cn2)c2nc[nH]c2n1`, the IC50 in test [3] stood at 29 µM; in test [4] it was 47 µM.
With `Cn1cc(CCNc2n/c(=N\C=[N+](C)C)n(C)c3ncn(C)c23)[n+](C)c1`, the inhibition entry (in test [7]; in the test listed under Homo sapiens [8]) was “inactive” in each case.
